Where “and” joins values, the source holds several entries; their conditions need not be identical. Equal values may be shown once. Read-outs that look alike come from different tables or passages of the source. Where no end group is shown, it is not given here.
Key:
BCL-2 F104L [1] = conditions: listed as Ven, cited from earlier work
BCL-2 G101V [2] = conditions: G101V relative to WT; cited from earlier work
BCL-2 WT [3] = conditions: competition vs BIMBH3 SPR surface, mean ± SD, n=3, previously reported, listed as Ven; cited from earlier work
BCL-2 G101V [4] = conditions: cited from earlier work
BCL-2 F104L [5] = conditions: cited from earlier work
BCL-2 F104C = BCL-2 F104C (Homo sapiens, UniProt P10415, F104C); test: SPR direct binding to immobilised BH3 peptides (kinetic fit), BCL-2 F104C; conditions: for Kd: BCL-2 F104C
Method: (§1) SPR experiments were performed as previously described. […] The lowest concentrations used in direct binding experiments were 1 nM for BIAcore 4000 and 0.1 nM for BIAcore S200 instruments, concentrations below these were below the sensitivity thresholds for the instruments. […] Direct binding experiments were fitted to a 1:1 binding site kinetic model, fitting on and off rates, in BIAevaluation software. For competition experiments steady-state responses were determined in BIAevaluation software according to the software defaults in affinity evaluation mode averaging responses for 5 sec. […] All affinity measurements were performed in at least two independent experiments using independent protein preparations.
(§2) Raw data (coloured curves) were fitted (black curves) to a 1 site specific kinetic model to determine on and off rates and the equilibrium binding constant KD.
(§3) The BCL-2 mutant proteins were diluted in a 2-fold dilution series, concentration ranges for curves are indicated. All experiments shown were performed on a BIAcore 4000, with the exception of (a) which was performed on a BIAcore S200.
(§4) (1 picture or pasted object on this page, not shown here)

BCL-2 WT [6] = conditions: cited from earlier work
[7] = target: BCL-2 G101V/E152A double mutant (Homo sapiens, UniProt P10415, E152A/G101V); test: SPR direct binding to immobilised BH3 peptides (kinetic fit), BCL-2 G101V/E152A double mutant
Method: as §1, §2, §3, §4

BCL-2 E152A = BCL-2 E152A (Homo sapiens, UniProt P10415, E152A); test: SPR direct binding to immobilised BH3 peptides (kinetic fit), BCL-2 E152A
Method: as §1, §2, §3, §4

[8] = tested on: KMS-12-PE cells, Parental; test: CellTiter-Glo cell viability, KMS-12-PE parental cells; assay type: cell-based; conditions: 3 independent experiments in duplicate
[9] = read-out: BAXBH3 KD (mean), direct binding, kinetic fit, mean ± SD, n ≥ 2, previously reported
[10] = read-out: BAXBH3 KD, single independent experiments, independent experiments 1-3, previously reported
[11] = BCL-2 F104C binding BAXBH3, 1:1 kinetic fit, each independent experiment
[12] = read-out: BAXBH3 KD (mean), direct binding, kinetic fit, mean ± SD, n ≥ 2

BCL-2 E152A, sequence (P10415 with tags, fused parts or gaps E152A): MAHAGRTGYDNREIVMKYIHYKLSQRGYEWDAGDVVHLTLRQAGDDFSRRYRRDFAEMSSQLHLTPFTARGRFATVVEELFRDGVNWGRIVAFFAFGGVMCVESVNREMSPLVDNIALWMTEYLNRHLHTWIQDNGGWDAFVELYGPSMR
BCL-2 F104C, sequence (P10415 with tags, fused parts or gaps F104C): as the sequence (P10415 with tags, fused parts or gaps E152A) above, with F47C, A95E counted along it
BCL-2 G101V/E152A double mutant, sequence (P10415 with tags, fused parts or gaps G101V/E152A): as the sequence (P10415 with tags, fused parts or gaps E152A) above, with G44V counted along it

## CC1(C)CCC(CN2CCN(c3ccc(C(=O)NS(=O)(=O)c4ccc(NCC5CCOCC5)c([N+](=O)[O-])c4)c(Oc4cnc5[nH]ccc5c4)c3)CC2)=C(c2ccc(Cl)cc2)C1 [venetoclax]
BCL-2 F104L [1]; competition vs BIMBH3 SPR surface, mean ± SD, n=3, previously reported, read-out: Ven KI (mean)
  Ki: 0.46 nM and 0.456 nM
BCL-2 F104L [1]; independent experiments 1-3, previously reported, read-out: Ven KI, single independent experiments
  Ki: 0.358 nM and 0.584 nM and 0.425 nM
BCL-2 G101V [2]
  reduction of affinity of the drug for BCL-2 by the G101V mutation: ~180 fold
BCL-2 WT [3]
  Ki: 0.018 nM and 0.0181 nM

## BAXBH3: biotinylated BAXBH3 peptide ADASTKKLSECLKRIGDELDSNMELQRMIAA immobilised on SPR sensor chip (also: biotinylated, place not given here)
BCL-2 G101V [4]; [9]
  Kd: 12 nM and 11.7 nM
BCL-2 G101V [4]; [10]
  Kd: 9.91 nM and 12.9 nM and 12.2 nM
BCL-2 F104L [5]; [9]
  Kd: 6.1 nM and 6.08 nM
BCL-2 F104L [5]; [10]
  Kd: 7.24 nM and 5.46 nM and 5.55 nM
BCL-2 F104C; [11]
  ka: 1.67e+06 M⁻¹ s⁻¹ and 2e+06 M⁻¹ s⁻¹ and 2.06e+06 M⁻¹ s⁻¹
  kd: 0.00709 s⁻¹ and 0.00791 s⁻¹ and 0.0079 s⁻¹
BCL-2 F104C; [12]
  Kd: 4 nM and 4.02 nM
BCL-2 F104C; read-out: BAXBH3 KD, single independent experiments, independent experiments 1-3
  Kd: 4.25 nM and 3.96 nM and 3.84 nM
BCL-2 WT [6]; [9]
  Kd: 1.4 nM and 1.37 nM
BCL-2 WT [6]; [10]
  Kd: 1.6 nM and 1.14 nM and 1.36 nM
[7]; read-out: BAXBH3 KD (mean), BCL-2 G101V/E152A, direct binding, kinetic fit, mean ± SD, n ≥ 2
  Kd: 5.5 nM and 5.51 nM
[7]; read-out: BAXBH3 KD, single independent experiments, BCL-2 G101V, E152A (DM), independent experiments 1-2
  Kd: 5.7 nM and 5.31 nM
BCL-2 E152A; [12]
  Kd: 3.6 nM and 3.55 nM
BCL-2 E152A; read-out: BAXBH3 KD, single independent experiments, independent experiments 1-2
  Kd: 4.18 nM and 2.93 nM

## O=C(c1cc(-c2cc3c(cc2C(=O)N2Cc4ccccc4C[C@H]2CN2CCOCC2)OCO3)n2c1CCCC2)N(c1ccccc1)c1ccc(O)cc1 [Servier BCL2i]
[8]; Servier BCL2i concentration 0.002441 μM, 0.002441 µM
  Raw data values in Figure 4a (cell viability): 91.4402 and 90.8859 and 86.2314 and 89.8168 and 85.5276 and 83.3911
[8]; Servier BCL2i concentration 0.019531 μM, 0.019531 µM
  Raw data values in Figure 4a (cell viability): 79.2854 and 83.3303 and 62.6836 and 66.1433 and 63.9237 and 63.1413
[8]; Servier BCL2i concentration 0.15625 μM, 0.15625 µM
  Raw data values in Figure 4a (cell viability): 41.8118 and 47.4883 and 34.039 and 38.7009 and 36.6962 and 37.7057
[8]; Servier BCL2i concentration 10 μM, 10 µM
  Raw data values in Figure 4a (cell viability): 0.8691 and 0.8133 and 1.2479 and 1.255 and 1.1789 and 1.099

Reference: paper PMC6547681 (Nature Communications, 2019)
